One compound from patent US5112754A, “Tissue plasminogen-activating factor and nonoclonal antibody” (Snow Brand Milk Products Co., Ltd., priority 1985, dated 1992) can be followed below.

Each structure is given as a SMILES string. Values joined by “and” are separate entries in the source; they are usually repeats but may differ in a detail not shown here. Equal values may be shown once. Where a SMILES comes first, the peptide text is derived from it. [ ]: non-standard residue; d: D form. The star is where a group is joined. pNA = O=[N+]([O-])c1ccc(N*)cc1

What all share (assay type): biochemical
The target in test [1] is T1, New type of plasminogen activator (non-urokinase tissue type, IMR-90 t-PA) produced by fibroblasts derived from human fetal lung tissue (Homo sapiens, UniProt P00750).
T1 construct: Normal fibroblasts of strain IMR-90 (ATCC, CCL-186) derived from human fetal lung tissue were cultured in a serum-free medium; endogenous in cells; host or cells: IMR-90 (ATCC CCL-186) normal human fetal lung fibroblasts; protein purified from the serum-free culture medium
T1 sequence (P00750 36-562): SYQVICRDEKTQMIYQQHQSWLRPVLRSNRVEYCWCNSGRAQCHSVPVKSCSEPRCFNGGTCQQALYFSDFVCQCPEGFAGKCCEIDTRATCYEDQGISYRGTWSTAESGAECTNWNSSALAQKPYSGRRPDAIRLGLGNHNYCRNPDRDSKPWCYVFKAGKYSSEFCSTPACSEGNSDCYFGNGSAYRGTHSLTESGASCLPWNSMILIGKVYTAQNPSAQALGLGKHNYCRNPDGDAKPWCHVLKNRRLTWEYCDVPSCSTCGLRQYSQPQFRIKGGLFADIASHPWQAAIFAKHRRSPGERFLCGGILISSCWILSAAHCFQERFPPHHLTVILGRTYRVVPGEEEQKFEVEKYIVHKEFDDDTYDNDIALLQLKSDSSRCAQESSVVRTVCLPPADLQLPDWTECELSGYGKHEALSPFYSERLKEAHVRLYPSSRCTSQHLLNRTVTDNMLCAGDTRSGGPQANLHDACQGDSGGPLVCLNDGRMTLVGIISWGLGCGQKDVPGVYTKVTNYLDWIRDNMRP
Nature of the test: Km and Vmax for synthetic substrate S-2288, new type of plasminogen activator.

Test [2] deals with Urokinase (high-molecular type) (Homo sapiens, UniProt P00749). Nature of the test: Km for synthetic substrate S-2288, urokinase high-molecular type. The conditions noted are these: for comparison.
Test [3] concerns the target Urokinase (low-molecular type) (Homo sapiens, UniProt P00749). Briefly: Vmax for synthetic substrate S-2288, urokinase low-molecular type. To be noted: for comparison.

On to `CC[C@@H](C)[C@@H](N)C(=O)N1CCC[C@H]1C(=O)N[C@@H](CCCNC(=N)N)C(=O)Nc1ccc([N+](=O)[O-])cc1` [S-2288, H.D.Ile-Pro-Arg-pNa.2HCl] (H-[dI]-Pro-Arg-pNA), for which the Km (as a rule, the concentration of substrate that gives half-maximal velocity) in test [1] (purified new type of plasminogen activator) is 1160 µM and ~1160 µM; in test [2] it was 500 µM. Also, the “Vmax for substrate S-2288” value is given as 1.7 × 10^-8 mol/min-unit in test [1] (purified new type of plasminogen activator, Table 1); “about 1.7×10^-8 mol/liter” in test [1] (purified plasminogen activator, unit as printed in running text b36); 5 × 10^-10 mol/min-unit in test [3].
